In US10342804B2, “Steroid compound for use in the treatment of hepatic encephalopathy” (Umecrine Cognition AB, priority 2014, dated 2019):

Key:
[1] = Exposure in plasma and brain tissue, hyperammonemic rats (Example 13); format: in vivo, rat; settings: for Total concentration in plasma: at the time for behavioral testing
Procedure: Male Wistar rats (140-160 g) were made hyperammonemic by feeding them a diet containing ammonium acetate (30% by weight) (Felipo et al, European Journal of Biochemistry, 1988, 176, 567-571).
3α-ethynyl-3β-hydroxyandrostan-17-one oxime in sesame oil was administered by subcutaneous injections in the back of the rats, once daily. Two different sets of experiments were performed in hyperammonemic rats. In the first set four groups of rats were used: 1) control rats injected with vehicle; 2) hyperammonemic rats injected with vehicle; 3) control rats injected with 20 mg/Kg of 3α-ethynyl-3β-hydroxyandrostan-17-one oxime and 4) hyperammonemic rats injected with 20 mg/Kg of 3α-ethynyl-3β-hydroxyandrostan-17-one oxime.
In the second set of experiments five groups of rats were used: 1) control rats injected with vehicle; 2) hyperammonemiac rats injected with vehicle and 3-5) hyperammonemic rats injected with 3, 10 or 20 mg/Kg of 3α-ethynyl-3β-hydroxyandrostan-17-one oxime. In each experiment 6-8 rats per group were used.
At the end of the treatment period plasma was collected from the tail vein, and after sacrifice by decapitation brains were collected and immediately frozen on dry ice. For analysis of 3α-ethynyl-3β-hydroxyandrostan-17-one oxime exposure, brain tissue was homogenized with a 1:4 ratio of tissue: PBS (pH 7.4) and then extracted with a 2-fold volume of methanol:acetonitrile (1:1), while plasma was protein-precipitated with a 3-fold volume with acetonitrile. Analyses were performed by Waters ACQUITY UPLC+Waters XEVO-TQS triple quadrupole mass spectrometer (Admescope Oy, Oulu, Finland). For calculations of the amount of free 3α-ethynyl-3β-hydroxyandrostan-17-one oxime exposure in the brain the fraction unbound (Fb) in brain homogenates were determined by dialysis, Fub in HA=[…] and Fub in PCS=1.43% (Admescope Oy, Oulu, Finland).

[2] = test system: hyperammonemic rats; assay: Spatial memory in the Morris water maze, chronic hyperammonemia model (Example 3); format: in vivo, rat; settings: 20 mg/kg s.c. once daily, 4th-5th week of treatment
Excerpt: In this study an animal model of chronic hyperammonemia was used that reproduces many of the cognitive and motor alterations present in hepatic encephalopathy. Rats were fed with ammonia in their food and after two weeks with ammonia enriched food they developed symptoms of hepatic encephalopathy. The beam walking test was made during the 3rd and 4th week of 3α-ethynyl-3β-hydroxyandrostan-17-one oxime treatment while the Morris Water maze test was made during 4th-5th week of 3α-ethynyl-3β-hydroxyandrostan-17-one oxime treatment and the Radial maze test was made during 6th-7th week of 3α-ethynyl-3β-hydroxyandrostan-17-one oxime treatment. […]
The test was carried out as follows; the first day was the pre-training day, rats were put in the water two times for 30 s only to adapt to water. […] The time, speed and path needed to find the hidden platform was recorded by a video tracking system provided by Viewpoint Company (Viewpoint 2.5, Champagne au Mont D′ Or, France) and used as a measure of learning of the task. After 15 training trial, the platform was removed from the pool, the rats were allowed to swim for 90 s in the pool and the time spent in the quadrant where the platform was positioned during training was recorded.

SMILES: C#C[C@]1(O)CC[C@@]2(C)C(CC[C@@H]3[C@@H]2CC[C@]2(C)/C(=N\O)CC[C@@H]32)C1 (stereo partly drawn) [3α-ethynyl-3β-hydroxyandrostan-17-one oxime]
- Unbound concentration in the brain tissue ([1]; 3 mg/Kg s.c. once daily): 6.1 ± 1.4 nmol/kg
- Total concentration in plasma ([1]; 3 mg/Kg s.c. once daily): 0.34 ± 0.03 µM
- Unbound concentration in the brain tissue ([1]; 10 mg/Kg s.c. once daily): 11.6 ± 1.4 nmol/kg
- Total concentration in plasma ([1]; 10 mg/Kg s.c. once daily): 1.08 ± 0.11 µM
- Unbound concentration in the brain tissue ([1]; 20 mg/Kg s.c. once daily): 23 ± 5 nmol/kg
- Total concentration in plasma ([1]; 20 mg/Kg s.c. once daily): 1.95 ± 0.61 µM
- Spatial memory in the Morris water maze (time to find the platform) [2]: completely restored spatial memory
